Structures can show the parent of a compound that is named as a salt.
Experiment: in vitro
Settings: rat, gh3-tre-luc cells

For `Cc1ccc(N(SC(F)(Cl)Cl)S(=O)(=O)N(C)C)cc1` [Tolylfluanid], the CC50 at 24 h (AC50 (uM) modified / 1000) was 3.13 µM.

Work on `C=C(C)C(=O)OCCCCCCCCCCOC(=O)C(=C)C` [1,10-Decanediol dimethacrylate] yielded a CC50 at 24 h (AC50 (uM) modified / 1000) greater than 90 µM.

In the case of `C=C1CC[C@H](O)C/C1=C/C=C1\CCC[C@]2(C)[C@@H]([C@H](C)CC[C@@H](O)C(C)(C)O)CC[C@@H]12` [24R,25-Dihydroxyvitamin D3], the CC50 at 24 h (AC50 (uM) modified / 1000) is reported as 23.4 µM.

Molecule `COc1ccc2c(c1)c(CC(=O)O)c(C)n2C(=O)c1ccc(Cl)cc1` [Indomethacin] has a CC50 at 24 h (AC50 (uM) modified / 1000) greater than 90 µM.

With `C(COCC1CO1)OCC1CO1` (stereo not shown) [Ethylene glycol diglycidyl ether] the CC50 at 24 h (AC50 (uM) modified / 1000) was greater than 90 µM.

With `CCC(=O)/C=C/C1C(C)=CCCC1(C)C` (stereo not shown) [Methylionone] the CC50 at 24 h (AC50 (uM) modified / 1000) was greater than 90 µM.

In the case of `CO[Si](CCCNc1ccccc1)(OC)OC` [N-[3-(Trimethoxysilyl)propyl]aniline], the CC50 at 24 h (AC50 (uM) modified / 1000) is reported as greater than 90 µM.

In the case of `CC(C)(O)CCC(C)(C)O` [2,5-Dimethylhexane-2,5-diol], the CC50 at 24 h (AC50 (uM) modified / 1000) is reported as greater than 90 µM.

Work on `OCC(O)[C@@H](O)[C@H](O)[C@H](O)CO[C@H]1O[C@H](CO)[C@@H](O)[C@H](O)[C@H]1O` (stereo partly shown) [Isomalt] yielded a CC50 at 24 h (AC50 (uM) modified / 1000) greater than 90 µM.

Molecule `O=C(OCCN1CCCCC1)C(O)(c1ccccc1)c1ccccc1` [Piperilate hydrochloride] has a CC50 at 24 h (AC50 (uM) modified / 1000) greater than 50 µM.

`[H]/N=C(/N)N[C@H]1[C@H](O)[C@@H](O)[C@H](O[C@@H]2O[C@@H](C)[C@](O)(C=O)[C@H]2O[C@@H]2O[C@@H](CO)[C@H](O)[C@@H](O)[C@@H]2NC)[C@@H](N/C(N)=N\[H])[C@@H]1O` [Streptomycin sulfate (2:3)] gave a CC50 at 24 h (AC50 (uM) modified / 1000) greater than 50 µM.

In the case of `CCOc1ccc(N=Nc2ccc(/C=C/c3ccc(N=Nc4ccc(OCC)cc4)cc3S(=O)(=O)O)c(S(=O)(=O)O)c2)cc1` [C.I. Direct Yellow 12], the CC50 at 24 h (AC50 (uM) modified / 1000) is reported as 42.7 µM.

`CCC(=O)OC1(c2ccccc2)CCN(C)CC1` [1-Methyl-4-phenyl-4-propionoxypiperidine hydrochloride] showed a CC50 at 24 h (AC50 (uM) modified / 1000, Tox21_110001=Tox21_112832, viability, 1 nM T3 present, 24 h) greater than 100 µM.

Molecule `C1CNCCN1` [Piperazine] has a CC50 at 24 h (AC50 (uM) modified / 1000) greater than 50 µM.

In the case of `FC(F)(F)C(F)(F)C(F)(F)C(F)(F)C(F)(F)F` [Perflenapent], the CC50 at 24 h (AC50 (uM) modified / 1000) is reported as greater than 50 µM.

`Cc1ccc2oc(CN(Cc3ccccc3)C(=O)Nc3c(F)cc(F)cc3F)c(-c3ccc(Cl)cc3)c2c1` [FR145237] gave a CC50 at 24 h (AC50 (uM) modified / 1000) greater than 80 µM.

With `CCC(C)Nc1ccc(NC(C)CC)cc1` (stereo not shown) [N,N'-Bis(1-methylpropyl)-1,4-benzenediamine] the CC50 at 24 h (AC50 (uM) modified / 1000) was 14 µM.

Molecule `O=C(O)[C@@H]1[C@H]2C[C@H]3c4[nH]c5ccccc5c4CCN3C[C@@H]2CC[C@@H]1O` [Yohimbic acid monohydrate] has a CC50 at 24 h (AC50 (uM) modified / 1000) greater than 20 µM.

For `CCCOC(=O)NCCCN(C)C` [Propamocarb hydrochloride], the CC50 at 24 h (AC50 (uM) modified / 1000) was greater than 90 µM.

With `C=CC(=O)OCCn1c(=O)n(CCOC(=O)C=C)c(=O)n(CCOC(=O)C=C)c1=O` [(2,4,6-Trioxo-1,3,5-triazinane-1,3,5-triyl)triethane-2,1-diyl trisprop-2-enoate] the CC50 at 24 h (AC50 (uM) modified / 1000) was 4.99 µM.

`O=C(Cl)c1c(Cl)cccc1Cl` [2,6-Dichlorobenzoyl chloride] showed a CC50 at 24 h (AC50 (uM) modified / 1000) greater than 90 µM.

With `O=C(O)c1ccc2cc(C(=O)O)ccc2c1` [2,6-Naphthalenedicarboxylic acid] the CC50 at 24 h (AC50 (uM) modified / 1000) was greater than 90 µM.

For `OC(c1ccccc1)(c1ccccc1)C1CN2CCC1CC2` (stereo not shown) [Quifenadine], the CC50 at 24 h (AC50 (uM) modified / 1000) was 35.6 µM.

`C[Si]1(C)N[Si](C)(C)N[Si](C)(C)N1` [2,2,4,4,6,6-Hexamethyl-1,3,5,2,4,6-triazatrisilinane] showed a CC50 at 24 h (AC50 (uM) modified / 1000) greater than 90 µM.

Work on `C[C@]12CCC(=O)C=C1CC[C@@H]1[C@@H]2CC[C@]2(C)C(=O)CC[C@@H]12` [4-Androstene-3,17-dione] yielded a CC50 at 24 h (AC50 (uM) modified / 1000, Tox21_110001=Tox21_110893, viability, 1 nM T3 present, 24 h) greater than 50 µM and a CC50 at 24 h (AC50 (uM) modified / 1000, Tox21_110001=Tox21_202269, viability, 1 nM T3 present, 24 h) greater than 90 µM.

For `CNc1ncnc2nc[nH]c12` [(N-6)-Methyladenine], the CC50 at 24 h (AC50 (uM) modified / 1000) was greater than 90 µM.

With `CC(C)[C@H]1CC[C@H](C(=O)N[C@H](Cc2ccccc2)C(=O)O)CC1` [Nateglinide] the CC50 at 24 h (AC50 (uM) modified / 1000) was greater than 50 µM.

`c1ccc2[nH]ccc2c1` [Indole] gave a CC50 at 24 h (AC50 (uM) modified / 1000) greater than 90 µM.

`O=S1(=O)OC(c2cc(Br)c(O)c(Br)c2)(c2cc(Br)c(O)c(Br)c2)c2ccccc21` [Bromophenol blue] gave a CC50 at 24 h (AC50 (uM) modified / 1000) of 63.9 µM.

In the case of `CCc1oc2ccccc2c1C(=O)c1cc(Br)c(O)c(Br)c1` [Benzbromarone], the CC50 at 24 h (AC50 (uM) modified / 1000) is reported as 39.4 µM.

From paper PMC6792352, “Limited Chemical Structural Diversity Found to Modulate Thyroid Hormone Receptor in the Tox21 Chemical Library” (Environmental Health Perspectives, 2019)
